Measured values published in the OligoGym collection.
HELM strings list units from the 5' end as sugar, base in round brackets, then linkage (d deoxyribose, r ribose, m 2'-O-methyl, p phosphodiester). Strings are as the collection lists them; they lack the last nucleoside at the 3' end of the tested compound. [moe] = 2'-O-(2-methoxyethyl) (MOE); [sp] = phosphorothioate linkage; [m5C] = 5-methylcytosine

What follows are substances tested against FUS (assay: mouse, dose not given). Conditions: ASO.

Q: With “RNA1{[moe](A)[sp].[moe](G)p.[moe](G)p.[moe](T)p.[moe](T)p.d(A)[sp].d([m5C])[sp].d(A)[sp].d(A)[sp].d(A)[sp].d(A)[sp].d(T)[sp].d(A)[sp].d(A)[sp].d([m5C])[sp].[moe](G)p.[moe](A)p.[moe](G)[sp].[moe](G)}$$$$ (last 3' nucleoside missing)” as the substance, how does the 3 h FOB score read?
A: 5.75 score 0-7

Q: How did the 3 h FOB score turn out when “RNA1{[moe](G)[sp].[moe]([m5C])p.[moe]([m5C])p.[moe](A)p.[moe]([m5C])p.d(A)[sp].d(G)[sp].d(A)[sp].d([m5C])[sp].d(T)[sp].d([m5C])[sp].d(A)[sp].d(A)[sp].d(T)[sp].d(T)[sp].[moe](G)p.[moe](T)p.[moe](A)[sp].[moe](A)}$$$$ (last 3' nucleoside missing)” was run?
A: 1 score 0-7

Q: For “RNA1{[moe](G)[sp].[moe](T)p.[moe](T)p.[moe](T)p.[moe](A)p.d(T)[sp].d([m5C])[sp].d(T)[sp].d(G)[sp].d(A)[sp].d(A)[sp].d(T)[sp].d(T)[sp].d([m5C])[sp].d(G)[sp].[moe]([m5C])p.[moe]([m5C])p.[moe](A)[sp].[moe](T)}$$$$ (last 3' nucleoside missing)”, which 3 h FOB score is on record?
A: 5.25 score 0-7

Q: How did the 3 h FOB score turn out when “RNA1{[moe](T)[sp].[moe]([m5C])p.[moe](A)p.[moe](T)p.[moe]([m5C])p.d(G)[sp].d(G)[sp].d(T)[sp].d(T)[sp].d(T)[sp].d([m5C])[sp].d([m5C])[sp].d([m5C])[sp].d(T)[sp].d(T)[sp].[moe](G)p.[moe]([m5C])p.[moe](A)[sp].[moe](G)}$$$$ (last 3' nucleoside missing)” was run?
A: 2.25 score 0-7

Q: With “RNA1{[moe](T)[sp].[moe](G)p.[moe](T)p.[moe](T)p.[moe](T)p.d(A)[sp].d(T)[sp].d([m5C])[sp].d(T)[sp].d(G)[sp].d(A)[sp].d(A)[sp].d(T)[sp].d(T)[sp].d([m5C])[sp].[moe](G)p.[moe]([m5C])p.[moe]([m5C])[sp].[moe](A)}$$$$ (last 3' nucleoside missing)” as the substance, how does the 3 h FOB score read?
A: 3 score 0-7

Q: How did the 3 h FOB score turn out when “RNA1{[moe](A)[sp].[moe](G)p.[moe](T)p.[moe](T)p.[moe](A)p.d([m5C])[sp].d(A)[sp].d(A)[sp].d(T)[sp].d(T)[sp].d(A)[sp].d([m5C])[sp].d(A)[sp].d(T)[sp].d(A)[sp].[moe](G)p.[moe](T)p.[moe]([m5C])[sp].[moe]([m5C])}$$$$ (last 3' nucleoside missing)” was run?
A: 4 score 0-7

Q: How did the 3 h FOB score turn out when “RNA1{[moe](A)[sp].[moe](G)p.[moe](G)p.[moe]([m5C])p.[moe](A)p.d(A)[sp].d([m5C])[sp].d(T)[sp].d(T)[sp].d([m5C])[sp].d([m5C])[sp].d([m5C])[sp].d([m5C])[sp].d(T)[sp].d(T)[sp].[moe](A)p.[moe](A)p.[moe](A)[sp].[moe](G)}$$$$ (last 3' nucleoside missing)” was run?
A: 1 score 0-7

Q: For “RNA1{[moe](G)[sp].[moe](T)p.[moe]([m5C])p.[moe](A)p.[moe](G)p.d(G)[sp].d(T)[sp].d(T)[sp].d(A)[sp].d(A)[sp].d([m5C])[sp].d([m5C])[sp].d(A)[sp].d(T)[sp].d(T)[sp].[moe](A)p.[moe]([m5C])p.[moe]([m5C])[sp].[moe](A)}$$$$ (last 3' nucleoside missing)”, which 3 h FOB score is on record?
A: 2.5 score 0-7

Q: With “RNA1{[moe](T)[sp].[moe]([m5C])p.[moe]([m5C])p.[moe](A)p.[moe]([m5C])p.d(G)[sp].d(A)[sp].d(A)[sp].d(T)[sp].d(T)[sp].d([m5C])[sp].d(A)[sp].d(G)[sp].d(T)[sp].d(T)[sp].[moe](T)p.[moe](G)p.[moe](T)[sp].[moe](G)}$$$$ (last 3' nucleoside missing)” as the substance, how does the 3 h FOB score read?
A: 4 score 0-7

Q: With “RNA1{[moe](G)[sp].[moe](A)p.[moe]([m5C])p.[moe]([m5C])p.[moe]([m5C])p.d([m5C])[sp].d(T)[sp].d([m5C])[sp].d(T)[sp].d(T)[sp].d(A)[sp].d(T)[sp].d(T)[sp].d(A)[sp].d(A)[sp].[moe]([m5C])p.[moe]([m5C])p.[moe](T)[sp].[moe](G)}$$$$ (last 3' nucleoside missing)” as the substance, how does the 3 h FOB score read?
A: 4 score 0-7

Q: How did the 3 h FOB score turn out when “RNA1{[moe](G)[sp].[moe]([m5C])p.[moe](A)p.[moe](A)p.[moe](A)p.d(G)[sp].d(A)[sp].d(T)[sp].d(A)[sp].d(G)[sp].d(T)[sp].d(T)[sp].d(A)[sp].d([m5C])[sp].d([m5C])[sp].[moe]([m5C])p.[moe](T)p.[moe]([m5C])[sp].[moe]([m5C])}$$$$ (last 3' nucleoside missing)” was run?
A: 1 score 0-7

Q: For “RNA1{[moe](G)[sp].[moe](A)p.[moe](G)p.[moe]([m5C])p.[moe](T)p.d(A)[sp].d(G)[sp].d(T)[sp].d(T)[sp].d(T)[sp].d([m5C])[sp].d(T)[sp].d(A)[sp].d(T)[sp].d(T)[sp].[moe](T)p.[moe](G)p.[moe]([m5C])[sp].[moe]([m5C])}$$$$ (last 3' nucleoside missing)”, which 3 h FOB score is on record?
A: 0 score 0-7

Q: “RNA1{[moe](G)[sp].[moe](T)p.[moe](T)p.[moe](A)p.[moe]([m5C])p.d(A)[sp].d(A)[sp].d(T)[sp].d(T)[sp].d(A)[sp].d([m5C])[sp].d(A)[sp].d(T)[sp].d(A)[sp].d(G)[sp].[moe](T)p.[moe]([m5C])p.[moe]([m5C])[sp].[moe](G)}$$$$ (last 3' nucleoside missing)” was tested. Which 3 h FOB score did it give?
A: 4.5 score 0-7

Q: “RNA1{[moe](A)[sp].[moe](T)p.[moe]([m5C])p.[moe](A)p.[moe](T)p.d([m5C])[sp].d(G)[sp].d(G)[sp].d(T)[sp].d(T)[sp].d(T)[sp].d([m5C])[sp].d([m5C])[sp].d([m5C])[sp].d(T)[sp].[moe](T)p.[moe](G)p.[moe]([m5C])[sp].[moe](A)}$$$$ (last 3' nucleoside missing)” was tested. Which 3 h FOB score did it give?
A: 5.5 score 0-7

Q: “RNA1{[moe](G)[sp].[moe](T)p.[moe](A)p.[moe](T)p.[moe](A)p.d([m5C])[sp].d([m5C])[sp].d(A)[sp].d(A)[sp].d([m5C])[sp].d(T)[sp].d(T)[sp].d([m5C])[sp].d(A)[sp].d([m5C])[sp].[moe]([m5C])p.[moe](A)p.[moe](T)[sp].[moe]([m5C])}$$$$ (last 3' nucleoside missing)” was tested. Which 3 h FOB score did it give?
A: 1 score 0-7

Q: Which 3 h FOB score does the source give for “RNA1{[moe](G)[sp].[moe](T)p.[moe](A)p.[moe](G)p.[moe](G)p.d(G)[sp].d(T)[sp].d([m5C])[sp].d([m5C])[sp].d(T)[sp].d(T)[sp].d([m5C])[sp].d(A)[sp].d(A)[sp].d(A)[sp].[moe](T)p.[moe]([m5C])p.[moe](T)[sp].[moe](T)}$$$$ (last 3' nucleoside missing)” here?
A: 1 score 0-7

Q: How did the 3 h FOB score turn out when “RNA1{[moe](A)[sp].[moe](G)p.[moe](T)p.[moe]([m5C])p.[moe](A)p.d(G)[sp].d(G)[sp].d(T)[sp].d(T)[sp].d(A)[sp].d(A)[sp].d([m5C])[sp].d([m5C])[sp].d(A)[sp].d(T)[sp].[moe](T)p.[moe](A)p.[moe]([m5C])[sp].[moe]([m5C])}$$$$ (last 3' nucleoside missing)” was run?
A: 1 score 0-7

Q: Which 3 h FOB score does the source give for “RNA1{[moe](G)[sp].[moe](G)p.[moe]([m5C])p.[moe](A)p.[moe](T)p.d(T)[sp].d([m5C])[sp].d(T)[sp].d(A)[sp].d([m5C])[sp].d([m5C])[sp].d([m5C])[sp].d(T)[sp].d(A)[sp].d([m5C])[sp].[moe]([m5C])p.[moe]([m5C])p.[moe]([m5C])[sp].[moe](T)}$$$$ (last 3' nucleoside missing)” here?
A: 1 score 0-7

Q: With “RNA1{[moe](G)[sp].[moe](G)p.[moe](T)p.[moe](T)p.[moe](G)p.d(A)[sp].d([m5C])[sp].d(A)[sp].d(A)[sp].d([m5C])[sp].d([m5C])[sp].d(A)[sp].d(A)[sp].d(G)[sp].d(T)[sp].[moe](A)p.[moe](G)p.[moe](T)[sp].[moe](T)}$$$$ (last 3' nucleoside missing)” as the substance, how does the 3 h FOB score read?
A: 5 score 0-7

Q: With “RNA1{[moe](T)[sp].[moe](T)p.[moe](A)p.[moe]([m5C])p.[moe](A)p.d(A)[sp].d(T)[sp].d(T)[sp].d(A)[sp].d([m5C])[sp].d(A)[sp].d(T)[sp].d(A)[sp].d(G)[sp].d(T)[sp].[moe]([m5C])p.[moe]([m5C])p.[moe](G)[sp].[moe](A)}$$$$ (last 3' nucleoside missing)” as the substance, how does the 3 h FOB score read?
A: 2 score 0-7

Q: “RNA1{[moe](A)[sp].[moe]([m5C])p.[moe]([m5C])p.[moe](A)p.[moe](T)p.d([m5C])[sp].d([m5C])[sp].d(T)[sp].d(T)[sp].d(A)[sp].d(A)[sp].d(A)[sp].d(A)[sp].d([m5C])[sp].d([m5C])[sp].[moe](G)p.[moe](T)p.[moe](G)[sp].[moe](T)}$$$$ (last 3' nucleoside missing)” was tested. Which 3 h FOB score did it give?
A: 1 score 0-7

Q: Which 3 h FOB score does the source give for “RNA1{[moe]([m5C])[sp].[moe]([m5C])[sp].[moe](T)[sp].[moe](G)[sp].[moe](G)[sp].d(T)[sp].d(T)[sp].d(A)[sp].d(T)[sp].d(T)[sp].d(T)[sp].d([m5C])[sp].d([m5C])[sp].d([m5C])[sp].d(A)[sp].[moe](T)[sp].[moe](G)[sp].[moe](A)[sp].[moe](G)}$$$$ (last 3' nucleoside missing)” here?
A: 6 score 0-7

Q: How did the 3 h FOB score turn out when “RNA1{[moe](G)[sp].[moe](G)p.[moe](T)p.[moe]([m5C])p.[moe](A)p.d([m5C])[sp].d(T)[sp].d(T)[sp].d(T)[sp].d(T)[sp].d(A)[sp].d(A)[sp].d(T)[sp].d(G)[sp].d(G)[sp].[moe](G)p.[moe](A)p.[moe](A)[sp].[moe]([m5C])}$$$$ (last 3' nucleoside missing)” was run?
A: 4.75 score 0-7

Q: For “RNA1{[moe](G)[sp].[moe]([m5C])p.[moe](A)p.[moe](A)p.[moe](T)p.d(G)[sp].d(T)[sp].d([m5C])[sp].d(A)[sp].d([m5C])[sp].d([m5C])[sp].d(T)[sp].d(T)[sp].d(T)[sp].d([m5C])[sp].[moe](A)p.[moe](T)p.[moe](A)[sp].[moe]([m5C])}$$$$ (last 3' nucleoside missing)”, which 3 h FOB score is on record?
A: 0 score 0-7

Q: With “RNA1{[moe](G)[sp].[moe](G)p.[moe](T)p.[moe](T)p.[moe](A)p.d([m5C])[sp].d(A)[sp].d(A)[sp].d(A)[sp].d(A)[sp].d(T)[sp].d(A)[sp].d(A)[sp].d([m5C])[sp].d(G)[sp].[moe](A)p.[moe](G)p.[moe](G)[sp].[moe](G)}$$$$ (last 3' nucleoside missing)” as the substance, how does the 3 h FOB score read?
A: 3 score 0-7

Q: How did the 3 h FOB score turn out when “RNA1{[moe]([m5C])[sp].[moe]([m5C])p.[moe](G)p.[moe](T)p.[moe](G)p.d(T)[sp].d(T)[sp].d(G)[sp].d(T)[sp].d(T)[sp].d(T)[sp].d([m5C])[sp].d([m5C])[sp].d([m5C])[sp].d([m5C])[sp].[moe](G)p.[moe](A)p.[moe](A)[sp].[moe](A)}$$$$ (last 3' nucleoside missing)” was run?
A: 1 score 0-7
